This passage reports IC50 and Ratio IC50 results from ChEMBL document CHEMBL1268984, “N-Substituted acetamidines and 2-methylimidazole derivatives as selective inhibitors of neuronal nitric oxide synthase” (Bioorg Med Chem Lett, 2010).

One test deals with Nitric oxide synthase 1 (Rattus norvegicus, UniProt P29476). As to the kind of experiment: Inhibition of rat brain nNOS assessed as nitric oxide mediated oxidation of oxyhemoglobin to methemoglobin.
For test [1], the target named is T1, Nitric oxide synthase, inducible (Mus musculus, UniProt P29477).
T1 sequence (P29477 whole entry): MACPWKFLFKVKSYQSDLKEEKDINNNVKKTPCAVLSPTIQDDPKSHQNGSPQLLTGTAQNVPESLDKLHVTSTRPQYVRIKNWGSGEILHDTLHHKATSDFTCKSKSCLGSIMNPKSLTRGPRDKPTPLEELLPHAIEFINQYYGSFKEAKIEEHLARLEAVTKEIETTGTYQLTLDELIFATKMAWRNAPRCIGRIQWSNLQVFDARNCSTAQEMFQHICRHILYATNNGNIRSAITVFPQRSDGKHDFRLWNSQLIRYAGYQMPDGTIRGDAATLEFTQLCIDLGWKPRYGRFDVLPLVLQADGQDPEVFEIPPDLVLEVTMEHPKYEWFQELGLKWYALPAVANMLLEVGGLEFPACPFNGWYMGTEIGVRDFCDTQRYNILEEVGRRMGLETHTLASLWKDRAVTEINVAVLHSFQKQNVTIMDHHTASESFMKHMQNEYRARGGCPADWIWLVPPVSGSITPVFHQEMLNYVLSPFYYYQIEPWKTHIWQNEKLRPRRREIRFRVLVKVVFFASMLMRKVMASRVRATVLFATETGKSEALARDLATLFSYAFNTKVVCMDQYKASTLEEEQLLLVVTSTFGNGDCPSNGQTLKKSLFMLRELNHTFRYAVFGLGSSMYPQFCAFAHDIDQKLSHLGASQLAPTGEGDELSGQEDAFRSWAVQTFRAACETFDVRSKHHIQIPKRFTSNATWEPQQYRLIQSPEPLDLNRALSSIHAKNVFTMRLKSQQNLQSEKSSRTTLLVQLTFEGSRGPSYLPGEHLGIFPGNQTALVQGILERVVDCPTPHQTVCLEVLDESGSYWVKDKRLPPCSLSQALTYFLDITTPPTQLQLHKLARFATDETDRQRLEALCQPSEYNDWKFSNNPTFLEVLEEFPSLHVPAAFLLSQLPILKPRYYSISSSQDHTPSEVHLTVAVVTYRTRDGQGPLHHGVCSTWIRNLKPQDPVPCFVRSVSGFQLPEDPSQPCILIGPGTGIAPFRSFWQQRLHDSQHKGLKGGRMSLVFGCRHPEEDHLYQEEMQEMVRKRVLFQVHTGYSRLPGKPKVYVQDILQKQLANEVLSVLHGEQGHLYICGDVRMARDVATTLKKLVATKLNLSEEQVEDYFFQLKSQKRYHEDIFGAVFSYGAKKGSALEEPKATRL
Description: Inhibition of mouse macrophage iNOS assessed as nitric oxide mediated oxidation of oxyhemoglobin to methemoglobin.

Test [2] in a line: Selectivity ratio, ratio of IC50 for mouse macrophage iNOS to IC50 for rat brain nNOS.
In a further test the target is T2, Nitric oxide synthase 3 (Bos taurus, UniProt P29473).
T2 sequence (P29473 whole entry): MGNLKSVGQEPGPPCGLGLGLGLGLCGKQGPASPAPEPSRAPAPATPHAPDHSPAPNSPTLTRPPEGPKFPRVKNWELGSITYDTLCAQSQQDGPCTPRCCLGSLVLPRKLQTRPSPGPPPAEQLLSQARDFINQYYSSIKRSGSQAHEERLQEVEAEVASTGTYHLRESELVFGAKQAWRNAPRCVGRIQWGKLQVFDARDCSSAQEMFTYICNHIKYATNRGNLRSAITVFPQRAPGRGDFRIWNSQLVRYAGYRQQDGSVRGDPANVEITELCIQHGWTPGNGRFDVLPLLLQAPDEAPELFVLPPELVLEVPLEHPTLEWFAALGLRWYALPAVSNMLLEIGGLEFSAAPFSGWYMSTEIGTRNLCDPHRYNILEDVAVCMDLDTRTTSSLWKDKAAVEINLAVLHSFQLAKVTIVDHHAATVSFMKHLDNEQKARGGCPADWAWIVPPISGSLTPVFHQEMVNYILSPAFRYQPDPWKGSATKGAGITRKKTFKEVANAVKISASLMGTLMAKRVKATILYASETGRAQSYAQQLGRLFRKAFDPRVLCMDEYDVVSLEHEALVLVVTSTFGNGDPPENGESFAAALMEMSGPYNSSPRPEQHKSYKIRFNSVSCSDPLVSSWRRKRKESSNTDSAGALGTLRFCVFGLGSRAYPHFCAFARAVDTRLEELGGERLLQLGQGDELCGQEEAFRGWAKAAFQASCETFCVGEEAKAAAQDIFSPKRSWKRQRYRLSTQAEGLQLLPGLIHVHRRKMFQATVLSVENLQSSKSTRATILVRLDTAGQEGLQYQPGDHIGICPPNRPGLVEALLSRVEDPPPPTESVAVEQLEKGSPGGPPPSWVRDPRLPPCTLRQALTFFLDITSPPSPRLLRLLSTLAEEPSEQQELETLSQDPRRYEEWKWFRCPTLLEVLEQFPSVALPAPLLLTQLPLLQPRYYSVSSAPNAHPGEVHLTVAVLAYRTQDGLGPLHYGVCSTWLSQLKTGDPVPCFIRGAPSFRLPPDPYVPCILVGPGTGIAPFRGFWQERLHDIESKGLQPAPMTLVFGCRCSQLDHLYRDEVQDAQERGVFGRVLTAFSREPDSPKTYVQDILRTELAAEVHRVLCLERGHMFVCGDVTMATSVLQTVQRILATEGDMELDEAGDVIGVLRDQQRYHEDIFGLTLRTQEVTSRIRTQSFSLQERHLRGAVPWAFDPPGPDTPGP
Description: Inhibition of bovine eNOS assessed as nitric oxide mediated oxidation of oxyhemoglobin to methemoglobin.

Test [3] can be described thus: Selectivity ratio, ratio of IC50 for bovine eNOS to IC50 for rat brain nNOS.

Chain of Nitric oxide synthase 1 (P29476 whole entry): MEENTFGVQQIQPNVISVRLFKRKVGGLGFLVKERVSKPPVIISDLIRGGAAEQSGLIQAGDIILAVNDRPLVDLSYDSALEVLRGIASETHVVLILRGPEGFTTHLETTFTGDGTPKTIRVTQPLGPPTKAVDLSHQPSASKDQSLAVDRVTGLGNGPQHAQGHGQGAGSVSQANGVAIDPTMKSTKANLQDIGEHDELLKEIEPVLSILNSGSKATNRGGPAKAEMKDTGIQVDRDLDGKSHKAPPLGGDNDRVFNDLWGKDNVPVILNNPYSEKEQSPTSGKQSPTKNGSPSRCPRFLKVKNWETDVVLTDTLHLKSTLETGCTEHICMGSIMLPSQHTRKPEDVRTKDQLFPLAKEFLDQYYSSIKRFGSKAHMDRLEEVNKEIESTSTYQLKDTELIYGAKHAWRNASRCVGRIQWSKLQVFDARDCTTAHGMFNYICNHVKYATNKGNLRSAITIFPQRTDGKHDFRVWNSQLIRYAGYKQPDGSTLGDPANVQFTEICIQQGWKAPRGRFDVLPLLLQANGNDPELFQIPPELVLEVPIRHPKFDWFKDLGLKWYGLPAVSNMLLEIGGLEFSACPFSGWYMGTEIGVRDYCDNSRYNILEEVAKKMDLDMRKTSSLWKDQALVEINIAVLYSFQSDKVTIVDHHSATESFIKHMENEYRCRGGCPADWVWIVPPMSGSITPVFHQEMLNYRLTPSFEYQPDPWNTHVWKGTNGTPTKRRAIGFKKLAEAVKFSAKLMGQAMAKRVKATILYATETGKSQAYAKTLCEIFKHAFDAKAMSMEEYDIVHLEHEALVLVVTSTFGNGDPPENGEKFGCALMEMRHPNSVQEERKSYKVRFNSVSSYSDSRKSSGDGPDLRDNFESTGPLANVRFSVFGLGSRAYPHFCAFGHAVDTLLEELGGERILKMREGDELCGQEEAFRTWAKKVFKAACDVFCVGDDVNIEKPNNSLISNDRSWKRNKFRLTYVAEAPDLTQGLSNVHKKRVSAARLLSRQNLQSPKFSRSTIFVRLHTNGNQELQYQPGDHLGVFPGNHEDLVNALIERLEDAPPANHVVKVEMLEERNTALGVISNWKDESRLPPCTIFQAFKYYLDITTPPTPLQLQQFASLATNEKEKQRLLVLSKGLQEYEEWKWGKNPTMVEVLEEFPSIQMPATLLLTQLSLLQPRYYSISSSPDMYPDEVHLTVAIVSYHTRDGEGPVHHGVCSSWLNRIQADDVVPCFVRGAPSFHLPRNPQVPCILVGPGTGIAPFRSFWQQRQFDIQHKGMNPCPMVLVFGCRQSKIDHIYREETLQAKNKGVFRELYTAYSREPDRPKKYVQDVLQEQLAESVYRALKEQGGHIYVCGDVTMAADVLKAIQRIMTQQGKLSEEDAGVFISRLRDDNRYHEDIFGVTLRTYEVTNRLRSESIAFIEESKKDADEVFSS

Take `COc1cccc(CNC(C)=N)c1`: the IC50 worked out at 10 µM at Nitric oxide synthase 1, 50 µM in test [1] and 100 µM at Nitric oxide synthase 3. Moreover, the Ratio IC50 is 5 in test [2] and 10 in test [3].

`CC(=N)NCc1ccccc1`: the figures for the IC50 (on Nitric oxide synthase 1; in test [1]; at Nitric oxide synthase 3) were 150 µM, 0.2 µM and 350 µM, respectively. The Ratio IC50 in test [2] is 0.013; in test [3], 2.3.

As to `CC(=N)NC(c1ccccc1)C(C)C` (racemic), the figures for the IC50 (at Nitric oxide synthase 1; in test [1]; at Nitric oxide synthase 3) were 0.2 µM, 10 µM and 100 µM, respectively. In addition, the Ratio IC50 was 50 in test [2] and 500 in test [3].

As for `Cc1nccn1Cc1ccccc1`, the IC50 was determined as 5 µM on Nitric oxide synthase 1, 50 µM in test [1] and 90 µM on Nitric oxide synthase 3. Moreover, the values for the Ratio IC50 in test [2] and in test [3] were 10 and 18, respectively.

Regarding `CC(=N)NCc1ccc2c(c1)OCO2`, the IC50 came out at 400 µM on Nitric oxide synthase 1, 800 µM in test [1] and 400 µM at Nitric oxide synthase 3. For the same compound, the Ratio IC50 in test [2] turned out to be 2; in test [3], 1.

With `Cc1nccn1Cc1ccncc1`, the concentration for half-maximal inhibition (IC50) at Nitric oxide synthase 1 is 5 µM; in test [1] it was 12 µM; on Nitric oxide synthase 3, 100 µM. The Ratio IC50 in test [2] came out at 2.4; in test [3], 20.

Regarding `CC(=N)N[C@@H](C)c1ccccc1`, the IC50 came out at 150 µM at Nitric oxide synthase 1, 0.45 µM in test [1] and 300 µM at Nitric oxide synthase 3. For the same compound, the figures for the Ratio IC50 in test [2] and in test [3] were 0.003 and 2, respectively.

In the case of `CC(=N)NC(c1ccccc1)c1ccccc1`, the half-maximal inhibitory concentration (IC50) at Nitric oxide synthase 1 is 0.3 µM; in test [1], 30 µM; at Nitric oxide synthase 3, 350 µM. In addition, the Ratio IC50 in test [2] was found to be 100; in test [3], 1170.

As for `Cc1nccn1C(C)c1ccccc1` (racemic) [EFETOZOLE], the IC50 on Nitric oxide synthase 1 came out at 5 µM; in test [1], 100 µM; on Nitric oxide synthase 3 it was 80 µM. In addition, the Ratio IC50 is 20 in test [2] and 16 in test [3].

On to `CCC(NC(C)=N)c1ccccc1` (racemic), for which the half-inhibitory concentration (IC50) on Nitric oxide synthase 1 came out at 90 µM; in test [1], 0.25 µM; on Nitric oxide synthase 3, 80 µM. Besides, the values for the Ratio IC50 in test [2] and in test [3] were 0.003 and 0.9, respectively.
